The values that follow come from patent US20250122155A1, “NOVEL INDOLE DERIVATIVE, PHARMACEUTICAL COMPOSITION COMPRISING SAME, AND USE THEREOF” (MITOIMMUNE THERAPEUTICS INC., priority 2021, published 2025).

For the assay, the system named is H9C2 cells. Kind of assay: Protective effect on heart cells against t-BHP (LDH release). The class given is cell-based. The conditions noted are these: H9C2, t-BHP 400 μM, 2 hours, read-out: EC50 (μM), Cell Protection Effect against t-BHP in Heart Cells. The protocol:
In order to identify the protective effect with regard to heart cells, H9C2 cells were divided into 96-well plates by 1.5×10^4, and cultured for 24 hours. The respective wells were treated with compounds of the examples 3× serial diluted to final concentrations of 30, 10, 3, 1, 0.3, 0.1, 0.03 and 0.01 μM, then incubated for 15 to 20 minutes. After treating with t-BHP with a final concentration of 400 μM, incubation was performed for 2 hours. To confirm the protective effect of each compound, a Cytotoxicity LDH assay kit [Dojindo; CK12] was used to measure the degree of extracellular secretion of LDH. After 2-hour treatment of the cells with t-BHP was completed, 100 μL each of the supernatant in which the cells were placed was collected and moved to a new 96-well plate. 100 μL/well of the assay buffer included in the kit (same amount as the sample) was added, followed by wrapping with foil and reacting for 30 minutes at room temperature. Observing the change of color in the sample, 50 μL/well of stop solution was added, then an iD3 spectrometer was used to measure absorbance at 490 nm and calculate the EC50 values. The EC50 of the compounds of the examples is preferably no more than 1.0 μM, and more preferably no more than 0.3 μM.

For `CCCNc1cc(COCCOC)cc2cc(-c3ccccc3)[nH]c12` [Example 16, 5-(2-methoxyethoxymethyl)-2-phenyl-N-propyl-1H-indol-7-amine], the EC50 – broadly, the concentration at which the effect is half-maximal – was at most 0.3 µM.
Next, `CCCCNc1cc(COCCOC)cc2cc(-c3ccccc3)[nH]c12` [Example 17, N-butyl-5-(2-methoxyethoxymethyl)-2-phenyl-1H-indol-7-amine]: at most 0.3 µM; `CCC(CC)CNc1cc(COCCOC)cc2cc(-c3ccccc3)[nH]c12` [Example 18, N-(2-ethylbutyl)-5-(2-methoxyethoxymethyl)-2-phenyl-1H-indol-7-amine]: at most 0.3 µM; `COCCOCc1cc(NCCC(C)C)c2[nH]c(-c3ccccc3)cc2c1` [Example 19, N-isopentyl-5-(2-methoxyethoxymethyl)-2-phenyl-1H-indol-7-amine]: at most 0.3 µM.
Next, `CCC(C)Nc1cc(COCCOC)cc2cc(-c3ccccc3)[nH]c12` (centres unmarked) [Example 20, 5-(2(methoxyethoxymethyl)-2-phenyl)-N-sec-butyl-1H-indol-7-amine]: at most 0.3 µM; `COCCOCc1cc(NCC2CC2)c2[nH]c(-c3ccccc3)cc2c1` [Example 21]: at most 0.3 µM; `CCCC(C)Nc1cc(COCCOC)cc2cc(-c3ccccc3)[nH]c12` (centres unmarked) [Example 22, 5-(2-methoxyethoxymethyl)-N-(1-methylbutyl)-2-phenyl-1H-indol-7-amine]: at most 0.3 µM.
The value for `CCC(CC)Nc1cc(COCCOC)cc2cc(-c3ccccc3)[nH]c12` [Example 23, N-(1-ethylpropyl)-5-(2-methoxyethoxymethyl)-2-phenyl-1H-indol-7-amine] was at most 0.3 µM.
Consider `COCCOCc1cc(/N=C(/C)C(F)(F)F)c2[nH]c(-c3ccccc3)cc2c1` [Example 24, (E,Z)-1,1,1-trifluoro-N-[5-(2-methoxyethoxymethyl)-2-phenyl-1H-indol-7-yl]propane-2-imine], for which the EC50 was at most 0.3 µM.
The value for `COCCOCc1cc(NC(C)C(F)(F)F)c2[nH]c(-c3ccccc3)cc2c1` (centres unmarked) [Example 25, 5-(2-methoxyethoxymethyl)-2-phenyl-N-(2,2,2-trifluoro-1-methyl-ethyl)-1H-indol-7-amine] was at most 0.3 µM.
For the compound `COCCOCc1cc(NC(C)C(C)C)c2[nH]c(-c3ccccc3)cc2c1` (centres unmarked) [Example 26, N-(1,2-dimethylpropyl)-5-(2-methoxyethoxymethyl)-2-phenyl-1H-indol-7-amine], the EC50 is at most 0.3 µM.
The value for `COCCOCc1cc(NC(C)C)c2[nH]c(-c3ccccc3)cc2c1` [Example 27, N-isopropyl-5-(2-methoxyethoxymethyl)-2-phenyl-1H-indol-7-amine] was at most 0.3 µM.
In the case of `COCCOCc1cc(NCc2ccccc2)c2[nH]c(-c3ccccc3)cc2c1` [Example 28, N-benzyl-5-(2-methoxyethoxymethyl)-2-phenyl-1H-indol-7-amine], the half-maximal effective concentration (EC50) is at most 0.3 µM.
The value for `COCCOCc1cc(NC2CCN(C(=O)OC(C)(C)C)CC2)c2[nH]c(-c3ccccc3)cc2c1` [Example 29, tert-butyl 4-[[5-(2-methoxyethoxymethyl)-2-phenyl-1H-indol-7-yl]amino]piperidine-1-carboxylate] was at most 0.3 µM.
As for `COCCOCc1cc(NC2CCN(S(C)(=O)=O)CC2)c2[nH]c(-c3ccccc3)cc2c1` [Example 31, 5-(2-methoxyethoxymethyl)-N-(1-methylsulfonyl-4-piperidyl)-2-phenyl-1H-indol-7-amine], the concentration giving a half-maximal response (EC50) was at most 0.3 µM.
Next, `COCCOCc1cc(NC2CCS(=O)(=O)CC2)c2[nH]c(-c3ccccc3)cc2c1` [Example 32, N-(1,1-dioxothian-4-yl)-5-(2-methoxyethoxymethyl)-2-phenyl-1H-indol-7-amine]: at most 0.3 µM; `COCCOCc1cc(NC2CC[S+]([O-])CC2)c2[nH]c(-c3ccccc3)cc2c1` (centres unmarked) [Example 33, 5-(2-methoxyethoxymethyl)-N-(1-oxothian-4-yl)-2-phenyl-1H-indol-7-amine]: at most 0.3 µM.
Next, `COCCOCc1cc(NC2CCN(C)CC2)c2[nH]c(-c3ccccc3)cc2c1` [Example 34, 5-(2-methoxyethoxymethyl)-N-(1-methyl-4-piperidyl)-2-phenyl-1H-indol-7-amine]: at most 0.3 µM; `CCOCCOCc1cc(NC2CCOCC2)c2[nH]c(-c3ccccc3)cc2c1` [Example 35, 5-(2-ethoxyethoxymethyl)-2-phenyl-N-tetrahydropyran-4-yl-1H-indol-7-amine]: at most 0.3 µM; `CC(C)OCCOCc1cc(NC2CCCC2)c2[nH]c(-c3ccccc3)cc2c1` [Example 37, N-cyclopentyl-5-(2-isopropoxyethoxymethyl)-2-phenyl-1H-indol-7-amine]: at most 0.3 µM.
`CC(C)OCCOCc1cc(NC2CCOCC2)c2[nH]c(-c3ccccc3)cc2c1` [Example 38, 5-(2-isopropoxyethoxymethyl)-2-phenyl-Ntetrahydropyran-4-yl-1H-indol-7-amine]: the EC50 is at most 0.3 µM.
For `COCCOCCOCc1cc(NC2CCOCC2)c2[nH]c(-c3ccccc3)cc2c1` [Example 40, 5-[2-(2-methoxyethoxy)ethoxymethyl]-2-phenyl-N-tetrahydropyran-4-yl-1H-indol-7-amine], the EC50 was in the range of 0.3 to 1 µM.
The value for `COCCOCc1cc(NC2CCN(C(=O)Nc3cc(C(F)(F)F)cc(C(F)(F)F)c3)CC2)c2[nH]c(-c3ccccc3)cc2c1` [Example 41, N-[3,5-bis(trifluoromethyl)phenyl]-4-[[5-(2-methoxyethoxymethyl)-2-phenyl-1H-indol-7-yl]amino]piperidine-1-carboxamide] was over 1 µM.
Next, `COCCOCc1cc(NC2CCN(C(=O)Nc3cc(Cl)cc(Cl)c3)CC2)c2[nH]c(-c3ccccc3)cc2c1` [Example 42, N-(3,5-dichlorophenyl)-4-[[5-(2-methoxyethoxymethyl)-2-phenyl-1H-indol-7-yl]amino]piperidine-1-carboxamide]: 0.3 to 1 µM.
The value for `COCCOCc1cc(NCc2cccs2)c2[nH]c(-c3ccccc3)cc2c1` [Example 43, 5-(2-methoxyethoxymethyl)-2-phenyl-N-(2-thienylmethyl)-1H-indol-7-amine] was 0.3 to 1 µM.
For `CCOC(=O)N1CCC(Nc2cc(COCCOC)cc3cc(-c4ccccc4)[nH]c23)CC1` [Example 44, Ethyl 4-[[5-(2-methoxyethoxymethyl)-2-phenyl-1H-indol-7-yl]amino]piperidine-1-carboxylate], the 50% effective concentration (EC50) was at most 0.3 µM.
The value for `COCCNc1cc(COCCOC)cc2cc(-c3ccccc3)[nH]c12` [Example 46, 5-(2-methoxyethoxymethyl)-N-(2-methoxyethyl)-2-phenyl-1H-indol-7-amine] was at most 0.3 µM.
The value for `COCCCNc1cc(COCCOC)cc2cc(-c3ccccc3)[nH]c12` [Example 47, 5-(2-methoxyethoxymethyl)-N-(3-methoxypropyl)-2-phenyl-1H-indol-7-amine] was at most 0.3 µM.
Next, `COCCOCc1cc(NC2CCOCC2)c2[nH]c(-c3cccc(F)c3)cc2c1` [Example 48, 2-(3-fluorophenyl)-5-(2-methoxyethoxymethyl)-N-tetrahydropyran-4-yl-1H-indol-7-amine]: at most 0.3 µM.
Turning to `COCCOCc1cc(NC2CCCC2)c2[nH]cc(C)c2c1` [Example 49, N-cyclopentyl-5-(2-methoxyethoxymethyl)-3-methyl-1H-indol-7-amine], the EC50 is 0.3 to 1 µM.
The value for `COCCOCc1cc(NC2CCCC2)c2[nH]cc(-c3ccccc3)c2c1` [Example 51, N-cyclopentyl-5-(2-methoxyethoxymethyl)-3-phenyl-1H-indol-7-amine] was at most 0.3 µM; that for `COCCOCc1cc(NC2CCOCC2)c2[nH]cc(-c3ccccc3)c2c1` [Example 52, 5-(2-methoxyethoxymethyl)-3-phenyl-N-tetrahydropyran-4-yl-1H-indol-7-amine] was at most 0.3 µM; that for `COCCOCc1cc(NC2CCOCC2)c2c(c1)cc(-c1ccccc1)n2C` [Example 53, 5-((2-methoxyethoxy)methyl)-1-methyl-2-phenyl-N-(tetrahydro-2H-pyran-4-yl)-1H-indol-7-amine] was 0.3 to 1 µM.
Next, `COCCOCc1cc(NC2CCCC2)c2[nH]c(-c3ccc(Br)cc3)cc2c1` [Example 54, 2-(4-bromophenyl)-N-cyclopentyl-5-((2-methoxyethoxy)methyl)-1H-indol-7-amine]: at most 0.3 µM; `COCCOCc1cc(NC2CCOCC2)c2[nH]c(-c3ccc(Br)cc3)cc2c1` [Example 55, 2-(4-bromophenyl)-5-((2-methoxyethoxy)methyl)-N-(tetrahydro-2H-pyran-4-yl)-1H-indol-7-amine]: at most 0.3 µM; `COCCOCc1cc(NC2CCCC2)c2[nH]c(-c3ccc(P(C)(C)=O)cc3)cc2c1` [Example 56, (4-(7-(cyclopentylamino)-5-((2-methoxyethoxy)methyl)-1H-indol-2-yl)phenyl)dimethylphosphine oxide]: at most 0.3 µM.
With `COCCOCc1cc(NC2CCOCC2)c2[nH]c(-c3ccc(P(C)(C)=O)cc3)cc2c1` [Example 57], the EC50 is over 1 µM.
The value for `COCCOCc1cc(NC2CCCC2)c2[nH]c(-c3ccc(C#CC(C)(C)O)cc3)cc2c1` [Example 58, 4-(4-(7-(cyclopentylamino)-5-((2-methoxyethoxy)methyl)-1H-indol-2-yl)phenyl)-2-methylbut-3-yn-2-ol] was 0.3 to 1 µM.
